From PubChem BioAssay (NCI)
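Step 1: Grow cells in 96-well plates. Step 2: Expose to compound for 48 hours at 5 concentrations. Step 3: Interpolate endpoints linearly; if unreached, use highest concentration. Abbreviation: GI50, concentration required for 50% inhibition of growth. At the TGI there is no net growth.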

Assays:
Assay in all cases: growth of human tumour cells (NCI), 48 h
BT-549 breast = test system: BT-549 breast
COLO 205 colon = test system: COLO 205 colon
HCT-116 colon = test system: HCT-116 colon
KM12 colon = test system: KM12 colon
MOLT-4 leukemia = test system: MOLT-4 leukemia
SF-295 CNS = test system: SF-295 CNS
SK-MEL-28 melanoma = test system: SK-MEL-28 melanoma
TK-10 renal = test system: TK-10 renal

SMILES	TGI (BT-549 breast) [µM]	TGI (COLO 205 colon) [µM]	TGI (HCT-116 colon) [µM]	TGI (KM12 colon) [µM]	TGI (MOLT-4 leukemia) [µM]	TGI (SF-295 CNS) [µM]	TGI (SK-MEL-28 melanoma) [µM]	TGI (TK-10 renal) [µM]	GI50 (BT-549 breast) [µM]	GI50 (COLO 205 colon) [µM]	GI50 (HCT-116 colon) [µM]	GI50 (KM12 colon) [µM]	GI50 (MOLT-4 leukemia) [µM]	GI50 (SF-295 CNS) [µM]	GI50 (SK-MEL-28 melanoma) [µM]	GI50 (TK-10 renal) [µM]
COc1ccc(CNC(C)C(=O)O)cc1 (centres undefined)	> 100	> 100	> 100	> 100	> 100	> 100	> 100	> 100	–	–	–	–	–	–	–	–
C[N+](C)(CCCCCC[N+](C)(C)CCCN1C(=O)c2cc3ccccc3cc2C1=O)CCCN1C(=O)c2cc3ccccc3cc2C1=O	> 37.5	> 37.5	> 37.5	> 37.5	> 37.5	> 37.5	> 37.5	> 37.5	> 37.5	> 37.5	> 37.5	> 37.5	> 37.5	> 37.5	> 37.5	> 37.5
O=S1(=O)NC2CCC3NS(=O)(=O)NC4CCC(N1)N4S(=O)(=O)N23 (centres undefined)	> 100	> 100	> 100	> 100	–	> 100	> 100	> 100	–	–	–	–	–	–	–	–
CO[C@]12C=C/C(=C(/C(=O)OCc3cccnc3)C(=O)CCCCCCCC[C@@]3(OC)C=C/C(=C(/C(=O)OCc4cccnc4)C(=O)CCCCCCCC1)O3)O2	4.29	5.06	1.22	2.38	–	–	6.45	18.9	1.51	1.49	0.275	1.03	–	–	1.37	2.93
NCCCn1c2c(c3ccc([N+](=O)[O-])cc3c1=O)C(=O)c1cc(-c3ccccc3)ccc1-2	3.77	–	0.315	0.818	0.595	3.45	3.13	–	2.09	–	0.172	0.291	0.235	1.79	1.51	–
O=C(N=Nc1c(O)[nH]c2ccccc12)c1oc2ccccc2c1CN1CCN(c2ccccc2)CC1	21	> 50	5.34	> 50	> 50	12.5	6.34	3.58	5.81	2.77	1.55	7.47	1.96	5.11	1.54	1.05
COc1cc2oc(-c3ccc(O)cc3O)c(CC=C(C)C)c(=O)c2c(O)c1/C=C/C(C)C	11.4	10.3	3.93	7.51	5.24	12.3	13.9	14.1	–	–	–	–	–	–	–	–
Cn1c(=O)c2ccc(-c3ccc(Br)cc3)nc2n(C)c1=O	–	> 100	> 100	> 100	> 100	> 100	> 100	> 100	–	–	–	–	–	–	–	–
CCC(CCC(C)C1CCC2C3CC=C4CC(OC5OC(CO)C(O)C(O)C5O)CCC4(C)C3CCC12C)C(C)C (centres undefined)	> 100	> 100	> 100	> 100	> 100	> 100	> 100	> 100	–	–	–	–	–	–	–	–
C=C1CCC2C3(C)COC(c4c(OC)cccc4OC)OC3CCC2(C)C1C/C=C1/C(=O)OCC1O (centres undefined)	5.64	4.95	3.11	4.99	13.3	18.1	4.05	12.5	2.25	2.23	1.64	2.21	3.22	5.28	1.93	4.03
COc1ccc(-c2nc(Nc3ccc(-c4nc5ccccc5[nH]4)cc3)nc(N3CCOCC3)n2)cc1	–	4.21	3.54	5.69	6.13	4.7	4.28	8.54	–	1.92	1.9	2.06	2.15	1.59	1.8	2.91
CC(C)=CCC1=C(OCC(=O)O)C(=O)c2ccccc2C1=O	> 100	> 100	66.8	> 100	> 100	41.4	> 100	> 100	–	–	–	–	–	–	–	–
Cc1ccc(/C=C/C(=N/N=C(N)N)c2ccccc2)cc1	–	3.74	12.2	13.2	9.1	13.1	15.8	12	–	1.69	3.05	2.97	3.01	2.99	3.95	3.89
c1ccc(CN2CCC3(CC2)SSC2(CCN(Cc4ccccc4)CC2)SS3)cc1	> 100	> 100	> 100	> 100	> 100	> 100	> 100	> 100	–	–	–	–	–	–	–	–
O=[N+]([O-])c1ccc(Sc2nc(Cl)nc(NC3CCCC3)n2)cc1	> 10	> 10	> 10	> 10	> 10	> 10	> 10	> 10	> 10	> 10	4.83	> 10	> 10	> 10	7	> 10
Clc1cc2c(nn1)Nc1ccccc1S2	> 100	> 100	> 100	> 100	> 100	> 100	> 100	> 100	> 100	> 100	> 100	> 100	> 100	> 100	> 100	> 100
Clc1nc(Cl)c2c3c(sc2n1)CCCC3	> 100	> 22.6	> 100	> 100	> 100	> 100	> 100	> 100	3.63	2.75	3.95	> 100	3.61	> 100	6.97	5.34
COC1=C(Br)C(O)C2(C=C1Br)CC(C(=O)NCCCCNC(=O)C1=NOC3(C=C(Br)C(OC)=C(Br)C3O)C1)=NO2 (centres undefined)	> 100	30.9	49.3	27.3	–	90.5	> 100	> 100	–	–	–	–	–	–	–	–
